Reference: US11499978B2, “Method for measuring quality of therapeutic cell through real-time glutathione measurement” (CELL2IN, INC., priority 2017, dated 2022)

Experiments:
hES-MSCs = assay: CFU-F assay of FreSH-Tracer-sorted hES-MSCs; type: cell-based, human
Description: Main factors for determining the therapeutic efficacy of hBM-MSCs, namely a colony forming unit-fibroblast (CFU-F) and a graft survival rate, were evaluated in cell culture models.
In order to test whether direct control of a GSH level in stem cells leads to change in cell functions, hES-MSCs sorted by FreSH-Tracer were treated with buthionine sulfoximine (BSO; glutathione synthesis inhibitor) and glutathione ethyl ester (GSH-EE). When GSH was decreased in cells by treating GSH^High cells with BSO (80 μM, 24 h), it was confirmed that CFU-F increased, and on the other hand, when GSH was increased by treating GSH^Low cells with GSH-EE (1 mM, 2 h), it was confirmed that CFU-F decreased (FIG. 13A). In addition, it was confirmed that, when hES-MSCs which were not sorted by FreSH-Tracer were treated with BSO or GSH-EE, PDGF-AA-induced cell migration capacity was decreased or increased, respectively (FIG. 13B).

hUC-MSCs [1] = assay: CFU-F assay of hUC-MSCs; type: cell-based, human; conditions: n=3
Description: (§1) The inventors observed an effect of the material on stem cells by treating each stem cells with a material for enhancing a glutathione evaluation parameter. When hUC-MSCs were subcultured in a L-AA2G-containing medium, CFU-F, migration capacity, and an anti-inflammatory effect were observed. A CFU-F assay (n=3) was performed by treating hUC-MSCs with 125 or 250 μg/mL of AA2G for three days. As shown in FIGS. 16A and 16B, it was confirmed that, when AA2G was treated, CFU-F increased. In addition, as hUC-MSCs were treated with 125 or 250 μg/mL of AA2G for three days, PDGF-AA-induced migration capacity (n=3) was analyzed. As shown in FIGS. 17A and 17B, it was confirmed that the migration capacity was increased by AA2G treatment. In addition, the reduction in T cell proliferation, the reduction in T cell differentiation, and the promotion of Treg cell differentiation were observed by treating hUC-MSCs with 125 or 250 μg/mL of AA2G for three days. […] Meanwhile, hUC-MSCs were cultured with a glutathione precursor such as γ-glutamyl cysteine (GGC, 0.1, 0.25, and 0.5 mM). A CFU-F assay (n=3) was performed by treating hUC-MSCs with each concentration of GGC for 2 hours. […] In addition, SDF1α and PDGF-AA-induced migration capacities (n=3) were analyzed for hUC-MSCs without treatment with GGC, and SDF1α and PDGF-AA-induced migration abilities (n=3) were analyzed by treating hUC-MSCs with the increasing concentrations of GGC. STI571 was used as a PDGFR kinase inhibitor. As shown in FIGS. 20A to 20C, it was confirmed that, according to an increase in GGC treatment concentration, SDF1α- and PDGF-AA-induced migration capacities were enhanced. A CFU-F assay (n=3) was performed by treating hUC-MSCs with 0.2, 1, 2, and 4 μM ferrostatin-1 and 0.1, 0.5, 1, and 2 μM liproxstatin-1 for 24 hours.

T cells = assay: Anti-inflammatory effect of treated hUC-MSCs on T cells; type: cell-based; conditions: for anti-inflammatory effect of the hUC-MSCs: ferrostatin-1 1 μM 24 h, GGC 0.2 mM 2 h, FIGS. 27, 28A to 28C; for T cell differentiation capacity / T cell proliferation ability / Treg cell differentiation: hUC-MSCs treated with 1 μM ferrostatin-1 24 h, 0.2 mM GGC 2 h, 2 mM GSH-EE 2 h
Description: The inventors observed an effect of the material on stem cells by treating each stem cells with a material for enhancing a glutathione evaluation parameter. When hUC-MSCs were subcultured in a L-AA2G-containing medium, CFU-F, migration capacity, and an anti-inflammatory effect were observed. A CFU-F assay (n=3) was performed by treating hUC-MSCs with 125 or 250 μg/mL of AA2G for three days. As shown in FIGS. 16A and 16B, it was confirmed that, when AA2G was treated, CFU-F increased. In addition, as hUC-MSCs were treated with 125 or 250 μg/mL of AA2G for three days, PDGF-AA-induced migration capacity (n=3) was analyzed. As shown in FIGS. 17A and 17B, it was confirmed that the migration capacity was increased by AA2G treatment. In addition, the reduction in T cell proliferation, the reduction in T cell differentiation, and the promotion of Treg cell differentiation were observed by treating hUC-MSCs with 125 or 250 μg/mL of AA2G for three days.
In addition, hUC-MSCs were cultured with ferrostatin-1 (0.2, 1, 2 and 4 μM) and liproxstatin-1 (0.1, 0.5, 1 and 2 μM), which control a glutathione level in cells by inhibiting lipid oxidation. […] Meanwhile, the hUC-MSCs were treated with 1 μM ferrostatin-1 for 24 hours, 0.2 mM GGC for 2 hours, and 2 mM GSH-EE for 2 hours. As a result, the reduction in T cell proliferation ability and the reduction in T cell differentiation capacity were observed, and promotion of Treg cell differentiation was observed.

hUC-MSCs [2] = assay: Oxidative stress resistance capacity (ORC) analysis in hUC-MSCs with RSL3; type: cell-based, human; conditions: hUC-MSCs; liproxstatin-1 0, 2.5, 5 or 10 μM; RSL3 0, 0.5 or 1 μM; the higher the concentration
Description: GRC refers to a value obtained by real-time monitoring of FR after living cells are treated with an oxidizing agent, as calculated by dividing a value obtained by subtracting AUC of a group treated with 0.1-100 mM N-ethylmaleimide (NEM) from FR AUC of an oxidizing agent (diamide, H2O2, etc.)-treated group by a value obtained by subtracting the AUC of NEM-treated group from AUC of the untreated control, and multiplying the resulting value by 100. The FR of the NEM-treated group is a value for increasing the sensitivity of a GRC value by treating it as the blank value of the FR of the cells of interest. […] To remove the MitoFreSH-Tracer from the medium before measurement, the medium was exchanged with fresh 10 mM HEPES-containing HBSS(Hanks' Balanced Salt Solution), and a fluorescence image was obtained using a confocal imaging system, Operetta. By comparing GSH levels quantified from control cells not treated with RSL3 or control cells before treated with RSL3, the distribution of GSH expression-changed cells was calculated. Based on the point where the distribution histogram is divided into two peaks, the cells were divided into GSH^High cells (right peak) and GSH^Low cells (left peak), and then a ratio of corresponding cells was expressed as a percentage (%). […]

hUC-MSCs [3] = assay: SDF1α- and PDGF-AA-induced migration capacity of hUC-MSCs; type: cell-based, human; conditions: increasing GGC treatment concentration (0.1, 0.25 mM), n=3
Description: as §1, with “mM).” for “mM). A CFU-F assay (n=3) was performed by treating hUC-MSCs with each concentration of GGC for 2 hours.”, “STI571 was used as a PDGFR kinase inhibitor. As shown in FIGS. 20A to 20C, it was confirmed that, according to an increase in GGC treatment concentration, SDF1α- and PDGF-AA-induced migration capacities were enhanced. A CFU-F assay (n=3) was performed by treating hUC-MSCs with 0.2, 1, 2, and 4 μM ferrostatin-1 and 0.1, 0.5, 1, and 2 μM liproxstatin-1 for 24 hours.” left out

Row | Compound | CFU-F (hES-MSCs; GSH^High hES-MSCs treated with BSO 80 μM, 24 h) | CFU-F (hUC-MSCs [1]; ferrostatin-1 0.2, 1, 2 and 4 μM, liproxstatin-1 0.1, 0.5, 1 and 2 μM, 24 hours) | anti-inflammatory effect of the hUC-MSCs (T cells) | ORC: ratio of the GSH^High cells (hUC-MSCs [2]) | T cell differentiation capacity (T cells) | T cell proliferation ability (T cells) | Treg cell differentiation (T cells) | CFU-F (hES-MSCs; GSH^Low hES-MSCs treated with GSH-EE 1 mM, 2 h) | CFU-F (hUC-MSCs [1]; GGC 0.1, 0.25 and 0.5 mM for 2 hours) | SDF1α- and PDGF-AA-induced migration capacities (hUC-MSCs [3])
1 | CCCCS(=N)(=O)CCC(N)C(=O)O (centres unmarked) [BSO, buthionine sulfoximine] | increased |  |  |  |  |  |  |  |  | 
2 | Clc1cccc(CN=C2Nc3ccccc3NC23CCNCC3)c1 [liproxstatin-1] |  | improved | did not alter | increased |  |  |  |  |  | 
3 | CCOC(=O)CNC(=O)[C@H](CS)NC(=O)CC[C@H](N)C(=O)O [GSH-EE, glutathione ethyl ester] |  |  |  |  | reduction | reduction | promotion | decreased |  | 
4 | N[C@@H](CCC(=O)N[C@@H](CS)C(=O)O)C(=O)O [GGC, γ-glutamyl cysteine] |  |  | no change |  | reduction | reduction | promotion |  | increased | enhanced
